# Measured values as given in US20140120063A1, “NUTRITIONAL AND METABOLIC APPROACHES TO PREVENT EMERGENCE OF ENTERIC PATHOGENS” (The Board of Trustees of the Leland Stanford Junior …, priority 2012, published 2014).
# How the values were obtained:
# [1] = Amount of sialic acid in cecal contents after sialic acid administration; format: in vivo, mice; conditions: 1% in water plus 1 mg oral gavage twice a day
# Method: (§1) For sialic acid administration experiments, N-acetylneuraminic acid (Calbiochem or Santa Cruz Biotechnology) was administered in the water at a 1% concentration. Additionally, mice were orally gavaged 1 mg of sialic acid twice a day. The amount of sialic acid in the cecal contents were calculated to equal approximately 700 pmoles/mg of cecal contents, which mirrors the average concentration of free sialic acids we quantified post-antibiotic treatment (725 pmoles/mg).
# All steps were carried out at 4° C. to minimize enzymatic hydrolysis. Approximately 200 mg of flash-frozen cecal contents were weighed out and resuspended in 400 μl dH2O, Samples were vortexed for 30 minutes at max speed and centrifuged for 15 minutes at 14,000×g in the tabletop centrifuge.
# The supernatant was stored, and the pellet resuspended in an additional 400 μl dH2O. The tubes were vortexed individually until the pellet was dispersed, and then all samples were vortexed for 30 minutes, centrifuged, and supernatants were pooled. This process was repeated once more for a total volume of approximately 1 ml. […] The resulting product was analyzed by reverse-phase HPLC using a C18 column (Dionex) at a flow rate of 0.9 ml/min, using a gradient of 5% to 11% acetonitrile in 7% methanol. […] The DMB-derivatized sialic acids were identified and quantified by comparing elution times and peak areas to known standards.
# C. difficile = C. difficile density in feces of gnotobiotic mice given exogenous free sialic acid; format: in vivo
# Method: (BioTek, Winooski, Vt.) every 30 minutes, at 37° C. anaerobically (6% H2, 20% CO2, 74% N2). Fecal densities (CFU) of C. difficile were quantified by duplicate sampling with 1 μl loops and subsequent dilution and spot plating on blood-BHI supplemented with erythromycin.
# Germ-free Swiss-Webster mice were maintained in gnotobiotic isolators and fed an autoclaved standard diet (Purina LabDiet 5K67) or a polysaccharide-deficient diet (Sonnenburg, E. D., et al. Cell, 2010. 141(7): p. 1241-52), in accordance with A-PLAC, the Stanford IACUC. For all experiments involving C. difficile colonization of germ-free mice, the diet was switched to polysaccharide-deficient chow one day before inoculation with C. difficile.
# as §1
# C. difficile nanE = C. difficile nanE gene expression (qRT-PCR) in feces of mice given exogenous free sialic acid; format: in vivo; conditions: sialic acid-fed Bt-ΔBT0455-associated mice, 1 day post-infection
# Method: as §1
# qRT-PCR analysis was performed on RNA extracted from cecal or fecal contents by phenolchloroform extraction and bead beating. Superscript II (Invitrogen) was utilized to convert RNA to cDNA, and SYBR Green (ABgene) in a MX3000P thermocycler (Strategene) was utilized. Fold changes were normalized to in vitro growths in Minimal Medium containing 0.5% glucose (MM-G) for C. difficile and LB for S. typhimurium.
# [2] = test system: S. typhimurium nanA mutant; test: Growth of S. typhimurium nanA mutant in minimal medium in the presence of sialic acid; format: cell-based; conditions: M9 minimal media, 0.25% sialic acid with glucose or glycerol
# Method: FIG. 8. Requirement for S. typhimurium nan and fuc operons for in vitro growth on sialic acid and fucose. A) S. typhimurium SL1344 encodes the genes necessary to catabolize sialic acid and fucose. The nan and fuc operons are pictured in their genomic context. B) Growth of wild-type S. typhimurium and mutant S. typhimurium strains in M9 minimal medium containing 0.5% glucose (M9+glucose), 0.5% sialic acid (M9+sialic acid), or 0.5% fucose (M9+fucose). OD600 measurements were taken every 30 minutes. C, D) ΔNanA E. coli (Keio strain JW3194) and wild-type and ΔNanA S. typhimurium SL1344 strains were grown aerobically in M9 minimal media containing 0.5% total carbohydrate. Cells were grown in (C) 0.5% glucose or 0.25% glucose and 0.25% sialic acid, and (D) 0.5% glycerol (gro) or 0.25% glycerol and 0.25% sialic acid. Optical densities were measured at indicated times.
# All strains of S. typhimurium were derived from wild-type strain SL1344, which is naturally streptomycin-resistant. […] Fecal densities (CFU) of S. typhimurium were quantified by duplicate sampling with 1 μl loops, and subsequent dilution and spot plating on plain LB agar for gnotobiotic experiments and LB agar with streptomycin for conventional experiments.
smiles,measurement,setting,value
"CC(=O)N[C@H]1[C@H]([C@H](O)[C@H](O)CO)OC(O)(C(=O)O)C[C@@H]1O (some centres unmarked) [sialic acid, N-acetylneuraminic acid]",amount of sialic acid in the cecal contents,[1],approximately 700 pmoles/mg of cecal contents
same,C. difficile density in the lumen of the gut,"C. difficile; GF mice infected with C. difficile, free sialic acid administration vs PBS, 1 day post-inoculation",higher densities
same,C. difficile density,"C. difficile; feces, 1 day post-infection, Bt-ΔBT0455 monoassociated mice fed free sialic acid (1% in water plus 1 mg gavage twice a day), unsupplemented controls 6.8×10^7",4.8×10^8 CFU/ml
same,"C. difficile nanE expression, fold higher over PBS-treated controls",C. difficile nanE,58 fold
same,toxicity of sialic acid to the nanA mutant,[2],did not pose a toxicity issue
